Reference: PMC8164773 (European Journal of Medicinal Chemistry, 2021)

Legend:
[1] = Solubility studies of bisulfite prodrugs in H2O; format: physicochemical; conditions: aqueous media, 25 °C
SARS-CoV-2 = format: cell-based; conditions: read-out: EC50 +CP

Row | Compound | increase in molar solubility compared to GC376 [1] | EC50 (SARS-CoV-2) [µM]
1 | CC(C)C[C@H](NC(=O)OCc1ccccc1)C(=O)N[C@@H](C[C@@H]1CCNC1=O)C(O)S(=O)(=O)[O-].[K+] (some centres unmarked) [3a] | approximately 30% | –
2 | COc1cccc2[nH]c(C(=O)N[C@@H](CC3CC3)C(=O)N[C@H](C=O)C[C@@H]3CCNC3=O)cc12 [1k] | – | 0.27 ± 0.4
